Reference: publication PMC10150365 (Journal of Medicinal Chemistry, 2023)

Tests used:
[1] = biological target: T1, Cholinesterase, Acetyl, ACES (Homo sapiens, UniProt P22303); assay: Cerep SafetyScreen-87; assay type: biochemical; conditions: n=2
T1 construct: purchased Eurofins Cerep/Panlabs SafetyScreen-87

Cyclooxigenase COX-1 = biological target: T2, Cyclooxigenase COX-1 (Homo sapiens, UniProt P23219); assay: Cerep SafetyScreen-87; assay type: biochemical; conditions: n=2
T2 construct: purchased Eurofins Cerep/Panlabs SafetyScreen-87

Cyclooxigenase COX-2 = biological target: T3, Cyclooxigenase COX-2 (Homo sapiens, UniProt P35354); assay: Cerep SafetyScreen-87; assay type: biochemical; conditions: n=2
T3 construct: purchased Eurofins Cerep/Panlabs SafetyScreen-87

Monoamine Oxidase MAO-B = biological target: T4, Monoamine Oxidase MAO-B (Homo sapiens, UniProt P27338); assay: Cerep SafetyScreen-87; assay type: biochemical; conditions: n=2
T4 construct: purchased Eurofins Cerep/Panlabs SafetyScreen-87

[2] = biological target: T5, Peptidase, Angiotensin Converting Enzyme (Oryctolagus cuniculus, UniProt P12822); assay: Cerep SafetyScreen-87; assay type: biochemical, rabbit; conditions: n=2
T5 construct: purchased Eurofins Cerep/Panlabs SafetyScreen-87

[3] = biological target: T6, Peptidase, CTSG (Cathepsin G) (Homo sapiens, UniProt P08311); assay: Cerep SafetyScreen-87; assay type: biochemical; conditions: n=2
T6 construct: purchased Eurofins Cerep/Panlabs SafetyScreen-87

Adenosine A1 = biological target: T7, Adenosine A1 (Homo sapiens, UniProt P30542); assay: Cerep SafetyScreen-87; assay type: binding; conditions: n=2
T7 construct: purchased Eurofins Cerep/Panlabs SafetyScreen-87

Adrenergic α2B = biological target: T8, Adrenergic α2B (Homo sapiens, UniProt P18089); assay: Cerep SafetyScreen-87; assay type: binding; conditions: n=2
T8 construct: purchased Eurofins Cerep/Panlabs SafetyScreen-87

Adrenergic β1 = biological target: T9, Adrenergic β1 (Homo sapiens, UniProt P08588); assay: Cerep SafetyScreen-87; assay type: binding; conditions: n=2
T9 construct: purchased Eurofins Cerep/Panlabs SafetyScreen-87

Adrenergic β2 = biological target: T10, Adrenergic β2 (Homo sapiens, UniProt P07550); assay: Cerep SafetyScreen-87; assay type: binding; conditions: n=2
T10 construct: purchased Eurofins Cerep/Panlabs SafetyScreen-87

Bradykinin B2 = biological target: T11, Bradykinin B2 (Homo sapiens, UniProt P30411); assay: Cerep SafetyScreen-87; assay type: binding; conditions: n=2
T11 construct: purchased Eurofins Cerep/Panlabs SafetyScreen-87

Calcium Channel N-type = biological target: T12, Calcium Channel N-type (Rattus norvegicus, UniProt Q02294); assay: Cerep SafetyScreen-87; assay type: binding; conditions: n=2
T12 construct: purchased Eurofins Cerep/Panlabs SafetyScreen-87

Cannabinoid CB1 = biological target: T13, Cannabinoid CB1 (Homo sapiens, UniProt P21554); assay: Cerep SafetyScreen-87; assay type: binding; conditions: n=2
T13 construct: purchased Eurofins Cerep/Panlabs SafetyScreen-87

Cannabinoid CB2 = biological target: T14, Cannabinoid CB2 (Homo sapiens, UniProt P34972); assay: Cerep SafetyScreen-87; assay type: binding; conditions: n=2
T14 construct: purchased Eurofins Cerep/Panlabs SafetyScreen-87

Chemokine CCR1 = biological target: T15, Chemokine CCR1 (Homo sapiens, UniProt P32246); assay: Cerep SafetyScreen-87; assay type: binding; conditions: n=2
T15 construct: purchased Eurofins Cerep/Panlabs SafetyScreen-87

Chemokine CXCR2 (IL-8RB) = biological target: T16, Chemokine CXCR2 (IL-8RB) (Homo sapiens, UniProt P25025); assay: Cerep SafetyScreen-87; assay type: binding; conditions: n=2
T16 construct: purchased Eurofins Cerep/Panlabs SafetyScreen-87

[4] = biological target: T17, Cholecystokinin CCK1 (CCKA) (Homo sapiens, UniProt P32238); assay: Cerep SafetyScreen-87; assay type: binding; conditions: n=2
T17 construct: purchased Eurofins Cerep/Panlabs SafetyScreen-87

Cholecystokinin (CCKB) = biological target: T18, Cholecystokinin (CCKB) (Homo sapiens, UniProt P32239); assay: Cerep SafetyScreen-87; assay type: binding; conditions: n=2
T18 construct: purchased Eurofins Cerep/Panlabs SafetyScreen-87

Dopamine D2S = biological target: T19, Dopamine D2S (Homo sapiens, UniProt P14416); assay: Cerep SafetyScreen-87; assay type: binding; conditions: n=2
T19 construct: purchased Eurofins Cerep/Panlabs SafetyScreen-87

Estrogen ERα = biological target: T20, Estrogen ERα (Homo sapiens, UniProt P03372); assay: Cerep SafetyScreen-87; assay type: binding; conditions: n=2
T20 construct: purchased Eurofins Cerep/Panlabs SafetyScreen-87

GABAB1A = biological target: T21, GABAB1A (Homo sapiens, UniProt Q9UBS5); assay: Cerep SafetyScreen-87; assay type: binding; conditions: n=2
T21 construct: purchased Eurofins Cerep/Panlabs SafetyScreen-87

Glucocorticoid = biological target: T22, Glucocorticoid (Homo sapiens, UniProt P04150); assay: Cerep SafetyScreen-87; assay type: binding; conditions: n=2
T22 construct: purchased Eurofins Cerep/Panlabs SafetyScreen-87

[5] = biological target: T23, Glutamate, Metabotropic, mGlu5 (Homo sapiens, UniProt P41594); assay: Cerep SafetyScreen-87; assay type: binding; conditions: n=2
T23 construct: purchased Eurofins Cerep/Panlabs SafetyScreen-87

Glutamate, NMDA, Glycine = Glutamate, NMDA, Glycine (Rattus norvegicus, UniProt P35439); assay: Cerep SafetyScreen-87; assay type: binding; conditions: n=2
Histamine H1 = biological target: T24, Histamine H1 (Homo sapiens, UniProt P35367); assay: Cerep SafetyScreen-87; assay type: binding; conditions: n=2
T24 construct: purchased Eurofins Cerep/Panlabs SafetyScreen-87

[6] = biological target: T25, Leukotriene, Cysteinyl CysLT1 (Homo sapiens, UniProt Q9Y271); assay: Cerep SafetyScreen-87; assay type: binding; conditions: n=2
T25 construct: purchased Eurofins Cerep/Panlabs SafetyScreen-87

Melanocortin MC1 = biological target: T26, Melanocortin MC1 (Homo sapiens, UniProt Q01726); assay: Cerep SafetyScreen-87; assay type: binding; conditions: n=2
T26 construct: purchased Eurofins Cerep/Panlabs SafetyScreen-87

Melanocortin MC4 = biological target: T27, Melanocortin MC4 (Homo sapiens, UniProt P32245); assay: Cerep SafetyScreen-87; assay type: binding; conditions: n=2
T27 construct: purchased Eurofins Cerep/Panlabs SafetyScreen-87

Muscarinic M1 = biological target: T28, Muscarinic M1 (Homo sapiens, UniProt P11229); assay: Cerep SafetyScreen-87; assay type: binding; conditions: n=2
T28 construct: purchased Eurofins Cerep/Panlabs SafetyScreen-87

Muscarinic M2 = biological target: T29, Muscarinic M2 (Homo sapiens, UniProt P08172); assay: Cerep SafetyScreen-87; assay type: binding; conditions: n=2
T29 construct: purchased Eurofins Cerep/Panlabs SafetyScreen-87

Opiate δ1 (OP1, DOP) = biological target: T30, Opiate δ1 (OP1, DOP) (Homo sapiens, UniProt P41143); assay: Cerep SafetyScreen-87; assay type: binding; conditions: n=2
T30 construct: purchased Eurofins Cerep/Panlabs SafetyScreen-87

Opiate K (OP2, KOP) = biological target: T31, Opiate K (OP2, KOP) (Homo sapiens, UniProt P41145); assay: Cerep SafetyScreen-87; assay type: binding; conditions: n=2
T31 construct: purchased Eurofins Cerep/Panlabs SafetyScreen-87

Progesterone PR-B = biological target: T32, Progesterone PR-B (Homo sapiens, UniProt P06401); assay: Cerep SafetyScreen-87; assay type: binding; conditions: n=2
T32 construct: purchased Eurofins Cerep/Panlabs SafetyScreen-87

[7] = biological target: T33, Serotonin (5-Hydroxytryptamine) 5-HT1A (Homo sapiens, UniProt P08908); assay: Cerep SafetyScreen-87; assay type: binding; conditions: n=2
T33 construct: purchased Eurofins Cerep/Panlabs SafetyScreen-87

[8] = biological target: T34, Serotonin (5-Hydroxytryptamine) 5-HT2C (Homo sapiens, UniProt P28335); assay: Cerep SafetyScreen-87; assay type: binding; conditions: n=2
T34 construct: purchased Eurofins Cerep/Panlabs SafetyScreen-87

[9] = biological target: T35, Serotonin (5-Hydroxytryptamine) 5-HT3 (Homo sapiens, UniProt P46098); assay: Cerep SafetyScreen-87; assay type: binding; conditions: n=2
T35 construct: purchased Eurofins Cerep/Panlabs SafetyScreen-87

Tachykinin NK1 = biological target: T36, Tachykinin NK1 (Homo sapiens, UniProt P25103); assay: Cerep SafetyScreen-87; assay type: binding; conditions: n=2
T36 construct: purchased Eurofins Cerep/Panlabs SafetyScreen-87

[10] = biological target: T37, Transporter, Dopamine (DAT) (Homo sapiens, UniProt Q01959); assay: Cerep SafetyScreen-87; assay type: binding; conditions: n=2
T37 construct: purchased Eurofins Cerep/Panlabs SafetyScreen-87

[11] = biological target: T38, Transporter, Serotonin (5-Hydroxytryptamine) (SERT) (Homo sapiens, UniProt P31645); assay: Cerep SafetyScreen-87; assay type: binding; conditions: n=2
T38 construct: purchased Eurofins Cerep/Panlabs SafetyScreen-87

Adenosine A2A [12] = biological target: T39, Adenosine A2A (Homo sapiens, UniProt P29274); assay type: cell-based; set-up: Cerep (contract assay) test=2527; conditions: functional assay, antagonist mode; read-out: adenosine A2A antagonism IC50
Adenosine A2A [13] = biological target: T39, Adenosine A2A; assay: Cerep SafetyScreen-87; assay type: binding; set-up: purchased Eurofins Cerep/Panlabs SafetyScreen-87; conditions: n=2

T39 sequence (P29274 whole entry): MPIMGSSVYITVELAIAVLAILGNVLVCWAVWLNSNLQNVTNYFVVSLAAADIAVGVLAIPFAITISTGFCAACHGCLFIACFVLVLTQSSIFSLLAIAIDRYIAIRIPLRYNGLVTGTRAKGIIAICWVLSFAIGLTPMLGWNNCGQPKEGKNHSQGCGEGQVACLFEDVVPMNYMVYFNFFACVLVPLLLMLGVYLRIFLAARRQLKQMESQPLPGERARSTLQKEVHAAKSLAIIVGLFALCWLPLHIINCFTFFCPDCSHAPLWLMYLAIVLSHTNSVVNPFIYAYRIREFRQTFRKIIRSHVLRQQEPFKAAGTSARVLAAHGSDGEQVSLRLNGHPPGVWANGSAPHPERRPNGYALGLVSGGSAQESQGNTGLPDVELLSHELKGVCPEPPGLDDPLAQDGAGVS
T17 sequence (P32238 whole entry): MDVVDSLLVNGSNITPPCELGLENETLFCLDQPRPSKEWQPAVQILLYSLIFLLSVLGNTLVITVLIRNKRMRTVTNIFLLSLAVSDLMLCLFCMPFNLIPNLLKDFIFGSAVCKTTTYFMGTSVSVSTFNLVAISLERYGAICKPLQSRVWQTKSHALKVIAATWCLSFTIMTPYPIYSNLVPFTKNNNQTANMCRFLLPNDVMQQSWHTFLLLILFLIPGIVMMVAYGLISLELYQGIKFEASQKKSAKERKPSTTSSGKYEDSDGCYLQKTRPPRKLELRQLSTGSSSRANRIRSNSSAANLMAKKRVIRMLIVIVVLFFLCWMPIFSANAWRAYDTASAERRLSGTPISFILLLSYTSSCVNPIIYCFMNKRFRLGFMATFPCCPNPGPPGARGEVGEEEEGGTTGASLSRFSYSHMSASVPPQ
T3 sequence (P35354 18-604): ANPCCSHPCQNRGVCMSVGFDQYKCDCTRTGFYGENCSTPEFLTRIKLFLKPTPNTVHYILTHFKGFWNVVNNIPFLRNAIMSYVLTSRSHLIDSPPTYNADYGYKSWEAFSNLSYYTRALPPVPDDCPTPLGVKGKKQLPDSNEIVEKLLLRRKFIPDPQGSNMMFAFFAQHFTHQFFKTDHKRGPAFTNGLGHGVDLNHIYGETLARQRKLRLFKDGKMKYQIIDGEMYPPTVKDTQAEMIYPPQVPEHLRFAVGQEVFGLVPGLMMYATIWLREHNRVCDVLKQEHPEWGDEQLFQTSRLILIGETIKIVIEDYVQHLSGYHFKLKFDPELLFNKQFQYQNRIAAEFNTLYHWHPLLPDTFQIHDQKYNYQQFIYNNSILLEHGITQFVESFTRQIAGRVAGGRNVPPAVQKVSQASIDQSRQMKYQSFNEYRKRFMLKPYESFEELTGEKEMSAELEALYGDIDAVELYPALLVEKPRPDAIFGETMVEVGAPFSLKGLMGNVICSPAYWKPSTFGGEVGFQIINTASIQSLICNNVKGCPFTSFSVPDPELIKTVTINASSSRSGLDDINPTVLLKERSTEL
T38 sequence (P31645 whole entry): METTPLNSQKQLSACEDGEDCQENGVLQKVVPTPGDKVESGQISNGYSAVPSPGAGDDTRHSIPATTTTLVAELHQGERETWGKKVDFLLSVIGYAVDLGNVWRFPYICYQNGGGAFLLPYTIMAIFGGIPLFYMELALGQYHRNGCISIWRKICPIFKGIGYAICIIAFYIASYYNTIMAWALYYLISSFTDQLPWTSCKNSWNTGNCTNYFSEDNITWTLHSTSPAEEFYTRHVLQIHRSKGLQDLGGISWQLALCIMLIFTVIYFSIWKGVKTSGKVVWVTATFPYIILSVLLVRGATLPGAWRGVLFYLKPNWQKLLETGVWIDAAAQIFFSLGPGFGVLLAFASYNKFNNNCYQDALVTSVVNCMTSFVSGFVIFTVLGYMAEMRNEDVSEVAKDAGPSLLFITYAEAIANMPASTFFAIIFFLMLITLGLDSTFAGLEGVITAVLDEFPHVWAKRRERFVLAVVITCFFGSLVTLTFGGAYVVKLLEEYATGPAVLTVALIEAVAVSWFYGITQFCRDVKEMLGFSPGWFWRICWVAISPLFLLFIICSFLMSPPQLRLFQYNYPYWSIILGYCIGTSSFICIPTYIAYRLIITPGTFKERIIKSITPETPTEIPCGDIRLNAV
T35 sequence (P46098 24-478): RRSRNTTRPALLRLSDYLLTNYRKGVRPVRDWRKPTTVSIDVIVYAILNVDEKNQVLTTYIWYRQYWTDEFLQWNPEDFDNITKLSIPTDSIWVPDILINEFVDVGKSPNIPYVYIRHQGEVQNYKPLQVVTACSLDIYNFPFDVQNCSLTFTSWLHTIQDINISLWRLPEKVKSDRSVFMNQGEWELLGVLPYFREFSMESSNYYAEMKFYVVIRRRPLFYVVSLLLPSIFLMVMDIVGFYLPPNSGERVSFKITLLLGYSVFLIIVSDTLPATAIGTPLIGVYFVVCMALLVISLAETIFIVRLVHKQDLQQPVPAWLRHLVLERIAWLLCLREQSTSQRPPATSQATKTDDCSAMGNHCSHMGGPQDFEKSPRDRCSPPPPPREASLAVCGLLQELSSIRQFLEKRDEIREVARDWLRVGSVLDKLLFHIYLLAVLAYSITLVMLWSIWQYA
T30 sequence (P41143 whole entry): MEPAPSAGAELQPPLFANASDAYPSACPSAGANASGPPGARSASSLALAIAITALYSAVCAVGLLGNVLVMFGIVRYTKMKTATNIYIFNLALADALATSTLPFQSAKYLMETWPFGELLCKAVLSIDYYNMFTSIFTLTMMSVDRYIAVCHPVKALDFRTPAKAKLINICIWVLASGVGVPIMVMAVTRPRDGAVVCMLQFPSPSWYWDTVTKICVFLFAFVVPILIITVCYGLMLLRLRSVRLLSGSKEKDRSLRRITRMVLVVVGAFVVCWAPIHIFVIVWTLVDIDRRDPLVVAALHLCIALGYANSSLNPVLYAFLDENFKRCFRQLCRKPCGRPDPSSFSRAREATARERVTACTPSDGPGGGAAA
T29 sequence (P08172 whole entry): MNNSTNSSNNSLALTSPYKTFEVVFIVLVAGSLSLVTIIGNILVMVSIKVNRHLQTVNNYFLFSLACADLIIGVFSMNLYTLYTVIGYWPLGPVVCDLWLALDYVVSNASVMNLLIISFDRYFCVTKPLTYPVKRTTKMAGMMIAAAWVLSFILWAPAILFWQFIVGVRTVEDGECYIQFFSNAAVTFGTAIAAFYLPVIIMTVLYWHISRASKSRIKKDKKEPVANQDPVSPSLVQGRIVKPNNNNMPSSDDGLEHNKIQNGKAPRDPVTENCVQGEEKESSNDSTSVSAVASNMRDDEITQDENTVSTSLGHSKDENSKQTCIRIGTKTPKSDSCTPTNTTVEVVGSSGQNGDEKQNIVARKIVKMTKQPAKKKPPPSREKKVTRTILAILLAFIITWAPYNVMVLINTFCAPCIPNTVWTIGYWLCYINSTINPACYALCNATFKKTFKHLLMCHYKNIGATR
T36 sequence (P25103 whole entry): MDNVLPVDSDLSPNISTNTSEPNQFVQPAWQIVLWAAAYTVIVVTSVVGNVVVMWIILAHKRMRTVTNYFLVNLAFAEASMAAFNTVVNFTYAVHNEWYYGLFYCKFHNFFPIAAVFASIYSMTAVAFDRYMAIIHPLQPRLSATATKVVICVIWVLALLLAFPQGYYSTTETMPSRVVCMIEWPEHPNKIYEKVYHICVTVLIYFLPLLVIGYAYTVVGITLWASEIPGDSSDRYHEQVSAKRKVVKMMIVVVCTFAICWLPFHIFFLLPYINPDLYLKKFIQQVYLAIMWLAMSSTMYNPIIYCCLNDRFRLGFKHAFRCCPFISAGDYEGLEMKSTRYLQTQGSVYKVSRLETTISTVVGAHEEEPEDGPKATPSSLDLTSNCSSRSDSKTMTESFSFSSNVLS
T18 sequence (P32239 whole entry): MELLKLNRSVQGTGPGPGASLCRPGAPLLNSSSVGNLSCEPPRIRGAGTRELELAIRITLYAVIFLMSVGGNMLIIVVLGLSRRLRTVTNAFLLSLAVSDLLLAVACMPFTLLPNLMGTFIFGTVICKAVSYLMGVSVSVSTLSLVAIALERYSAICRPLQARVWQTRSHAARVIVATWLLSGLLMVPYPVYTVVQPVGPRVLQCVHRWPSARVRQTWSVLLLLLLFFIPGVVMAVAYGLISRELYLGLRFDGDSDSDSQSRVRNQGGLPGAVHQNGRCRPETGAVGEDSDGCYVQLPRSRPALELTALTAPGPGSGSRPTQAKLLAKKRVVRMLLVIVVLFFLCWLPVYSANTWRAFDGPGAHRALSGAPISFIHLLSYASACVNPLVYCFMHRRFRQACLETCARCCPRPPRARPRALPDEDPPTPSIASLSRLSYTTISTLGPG
T34 sequence (P28335 33-458): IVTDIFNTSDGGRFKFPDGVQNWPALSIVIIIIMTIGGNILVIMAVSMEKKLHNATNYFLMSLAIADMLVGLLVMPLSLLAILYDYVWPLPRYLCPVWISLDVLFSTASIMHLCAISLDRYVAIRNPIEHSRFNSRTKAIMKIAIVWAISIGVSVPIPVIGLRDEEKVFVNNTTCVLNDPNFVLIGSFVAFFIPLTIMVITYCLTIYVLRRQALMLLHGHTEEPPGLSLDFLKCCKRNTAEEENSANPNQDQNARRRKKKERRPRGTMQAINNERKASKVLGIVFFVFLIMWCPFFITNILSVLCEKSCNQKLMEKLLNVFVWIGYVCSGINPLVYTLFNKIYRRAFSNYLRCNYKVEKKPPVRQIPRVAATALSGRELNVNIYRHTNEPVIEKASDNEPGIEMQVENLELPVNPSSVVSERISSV
T25 sequence (Q9Y271 whole entry): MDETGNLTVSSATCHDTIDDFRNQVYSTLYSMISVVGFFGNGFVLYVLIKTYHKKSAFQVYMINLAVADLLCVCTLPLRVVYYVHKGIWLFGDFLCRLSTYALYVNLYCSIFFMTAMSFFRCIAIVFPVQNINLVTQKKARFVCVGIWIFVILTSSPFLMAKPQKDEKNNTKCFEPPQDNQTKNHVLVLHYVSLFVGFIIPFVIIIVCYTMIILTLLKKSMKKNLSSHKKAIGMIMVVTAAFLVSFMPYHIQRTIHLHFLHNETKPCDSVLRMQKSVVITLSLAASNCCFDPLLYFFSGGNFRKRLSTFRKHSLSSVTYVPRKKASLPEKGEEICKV

With `CCN1CCN(Cc2ccc3cc(C(=O)Nc4cc(NC(=O)c5ccc6c(c5)OCCO6)ccc4F)ccc3n2)CC1` [Compound 22, N-(5-(2,3-Dihydrobenzo[b][1,4]dioxine-6-carboxamido)-2-fluorophenyl)-2-((4-ethylpiperazin-1-yl)methyl)quinoline-6-carboxamide] the inhibition at 10 µM [1] was 2%, the inhibition at 10 µM (Cyclooxigenase COX-1) was -24% and the inhibition at 10 µM (Cyclooxigenase COX-2) was -5%. The inhibition at 10 µM (Monoamine Oxidase MAO-B) was 36%, the inhibition at 10 µM [2] was 13% and the inhibition at 10 µM [3] was 1%. The inhibition at 10 µM (Adenosine A1) was 11%, the inhibition at 10 µM (Adrenergic α2B) was 79% and the inhibition at 10 µM (Adrenergic β1) was 4%. For the same compound, the inhibition at 10 µM (Adrenergic β2) was 12%, the inhibition at 10 µM (Bradykinin B2) was 0% and the inhibition at 10 µM (Calcium Channel N-type) was 9%. It also gave an inhibition at 10 µM (Cannabinoid CB1) of 9%, an inhibition at 10 µM (Cannabinoid CB2) of 79% and an inhibition at 10 µM (Chemokine CCR1) of 2%. The inhibition at 10 µM (Chemokine CXCR2 (IL-8RB)) was 7%, the inhibition at 10 µM [4] was 9% and the inhibition at 10 µM (Cholecystokinin (CCKB)) was -4%. It also gave an inhibition at 10 µM (Dopamine D2S) of 5%, an inhibition at 10 µM (Estrogen ERα) of -1% and an inhibition at 10 µM (GABAB1A) of 4%. The inhibition at 10 µM (Glucocorticoid) was 9%, the inhibition at 10 µM [5] was -2% and the inhibition at 10 µM (Glutamate, NMDA, Glycine) was -24%. For the same compound, the inhibition at 10 µM (Histamine H1) was 36%, the inhibition at 10 µM [6] was 7% and the inhibition at 10 µM (Melanocortin MC1) was -3%. For the same compound, the inhibition at 10 µM (Melanocortin MC4) was 2%, the inhibition at 10 µM (Muscarinic M1) was 43% and the inhibition at 10 µM (Muscarinic M2) was 52%. The inhibition at 10 µM (Opiate δ1 (OP1, DOP)) was 9%, the inhibition at 10 µM (Opiate K (OP2, KOP)) was 51% and the inhibition at 10 µM (Progesterone PR-B) was 5%. The inhibition at 10 µM [7] was 4%, the inhibition at 10 µM [8] was 55% and the inhibition at 10 µM [9] was -10%. For the same compound, the inhibition at 10 µM (Tachykinin NK1) was 14%, the inhibition at 10 µM [10] was 38% and the inhibition at 10 µM [11] was 25%. For the same compound, the IC50 (Adenosine A2A [12]) was 2 µM and the inhibition at 10 µM (Adenosine A2A [13]) was 91%.
